From BigSolDB 2.1

Row | SMILES | solubility (mole fraction) (in ethanol, 278 K) | solubility (mole fraction) (in ethanol, 283 K) | solubility (mole fraction) (in ethanol, 288 K) | solubility (mole fraction) (in ethanol, 293 K) | solubility (mole fraction) (in ethanol, 298 K) | solubility (mole fraction) (in ethanol, 303.2 K) | solubility (mole fraction) (in ethanol, 308 K) | solubility (mole fraction) (in ethanol, 313 K) | solubility (mole fraction) (in ethanol, 318 K) | solubility (mole fraction) (in ethanol, 323 K) | solubility (mole fraction) (in n-propanol, 278 K) | solubility (mole fraction) (in n-propanol, 283 K) | solubility (mole fraction) (in n-propanol, 288 K) | solubility (mole fraction) (in n-propanol, 293 K) | solubility (mole fraction) (in n-propanol, 298 K) | solubility (mole fraction) (in n-propanol, 303.1 K) | solubility (mole fraction) (in n-propanol, 308.2 K) | solubility (mole fraction) (in n-propanol, 313 K) | solubility (mole fraction) (in n-propanol, 318 K) | solubility (mole fraction) (in n-propanol, 323 K) | also measured
1 | O=S(=O)([N-]Cl)c1ccccc1.[Na+] | 0.0164 | 0.0193 | 0.0224 | 0.0264 | 0.031 | 0.0364 | 0.0422 | 0.0486 | 0.0561 | 0.066 | 0.00195 | 0.00348 | 0.00536 | 0.00778 | 0.0106 | 0.0142 | 0.0188 | 0.0245 | 0.0307 | 0.0378 | solubility (mole fraction) (in sec-butanol, 278 K): 0.00185; solubility (mole fraction) (in sec-butanol, 283 K): 0.00228; solubility (mole fraction) (in sec-butanol, 288 K): 0.00287; solubility (mole fraction) (in sec-butanol, 293 K): 0.00383; solubility (mole fraction) (in sec-butanol, 298.4 K): 0.00481; solubility (mole fraction) (in sec-butanol, 303.2 K): 0.00585; solubility (mole fraction) (in sec-butanol, 308 K): 0.00706; solubility (mole fraction) (in sec-butanol, 313 K): 0.0091; solubility (mole fraction) (in sec-butanol, 318 K): 0.0117; solubility (mole fraction) (in sec-butanol, 323 K): 0.015; solubility (mole fraction) (in water, 278 K): 0.0074; solubility (mole fraction) (in water, 283 K): 0.00829; solubility (mole fraction) (in water, 288 K): 0.0102; solubility (mole fraction) (in water, 293 K): 0.0127; solubility (mole fraction) (in water, 298 K): 0.0158; solubility (mole fraction) (in water, 303.1 K): 0.0192; solubility (mole fraction) (in water, 308.2 K): 0.0241; solubility (mole fraction) (in water, 313 K): 0.0316; solubility (mole fraction) (in water, 318 K): 0.0421; solubility (mole fraction) (in water, 323 K): 0.0554
2 | Cc1ccc(S(=O)(=O)[N-]Cl)cc1.[Na+] | 0.02 | 0.0221 | 0.0244 | 0.0268 | 0.0299 | 0.034 | 0.0388 | 0.0441 | 0.0499 | 0.0564 | 0.00503 | 0.00636 | 0.00776 | 0.00932 | 0.0109 | 0.013 | 0.0156 | 0.0191 | 0.0235 | 0.0291 | solubility (mole fraction) (in sec-butanol, 278 K): 0.00101; solubility (mole fraction) (in sec-butanol, 283 K): 0.00135; solubility (mole fraction) (in sec-butanol, 288 K): 0.00201; solubility (mole fraction) (in sec-butanol, 293 K): 0.00322; solubility (mole fraction) (in sec-butanol, 298.4 K): 0.00464; solubility (mole fraction) (in sec-butanol, 303.2 K): 0.00595; solubility (mole fraction) (in sec-butanol, 308 K): 0.00723; solubility (mole fraction) (in sec-butanol, 313 K): 0.00881; solubility (mole fraction) (in sec-butanol, 318 K): 0.0114; solubility (mole fraction) (in sec-butanol, 323 K): 0.0141; solubility (mole fraction) (in water, 278 K): 0.00684; solubility (mole fraction) (in water, 283 K): 0.008; solubility (mole fraction) (in water, 288 K): 0.00955; solubility (mole fraction) (in water, 293 K): 0.0114; solubility (mole fraction) (in water, 298 K): 0.0138; solubility (mole fraction) (in water, 303.1 K): 0.0171; solubility (mole fraction) (in water, 308.2 K): 0.0218; solubility (mole fraction) (in water, 313 K): 0.0284; solubility (mole fraction) (in water, 318 K): 0.037; solubility (mole fraction) (in water, 323 K): 0.0477
